Source: patent US9399645B2, “Inhibitors of HIV replication” (Boehringer Ingelheim International GmbH, priority 2011, dated 2016)

How the values were obtained:
HIV-1 = experiment: C8166 HIV-1 Luciferase Assay (EC50); assay type: cell-based; settings: Human immunodeficiency virus 1, C8166, 72 h
Procedure: C8166 HIV-1 Luciferase Assay (Ec50)
The assay used to measure inhibition of HIV replication is as described in WO 2004/050643, pages 73-75, incorporated herein by reference, with the following modifications:
Serial dilutions of HIV-1 inhibitors are prepared in complete media from DMSO stock solutions. Eleven serial dilutions of desired concentration are prepared in a 1 mL deep well titer plate (96 wells). The 12th well contains complete media with no inhibitor and serves as the positive control. All samples contain the same concentration of DMSO (<0.1% DMSO). Inhibitor is added, to triplicate wells, of a 96 well tissue culture treated clear view black microtiter plate (Corning Costar catalogue #3904). The total volume per well is 200 μL of media containing the cells and inhibitor. The last row is reserved for uninfected C8166 LTRIuc cells to serve as the background blank control and the first row is media alone.
Count C8166 LTRIuc cells and place in a minimal volume of complete RPMI 1640 in a tissue culture flask (ex. 30×10^6 cells in 10 mL media/25 cm^2 flask). Infect cells with HIV-1 at a moi of 0.005. Incubate cells for 1.5 h at 37° C. on a rotating rack in a 5% CO2 incubator. Resuspend cells in complete RPMI to give a final concentration of 25,000-cells/well. Add cells to wells of 96 well microtiter plate containing inhibitors. Add 25,000 uninfected C8166-LTRIuc cells/well in 200 μL complete RPMI to last row for background control. Incubate cells at 37° C. in 5% CO2 incubator for 3 days.
50 μL Steady Glo (luciferase substrate T112=5 hours Promega catalogue # E2520) is added to each well of the 96 well plate. The relative light units (RLU) of luciferase are determined using a luminescence plate reader. The calculated % inhibition values are used to determine EC50, slope factor (n) and maximum inhibition (Imax).

[1] = Caco-2 Permeability Assay; assay type: in vitro ADME; settings: human; for Papp A→B at 10 μM: apparent permeability A to B, compound at 10 μM, apical buffer pH 6.0, basolateral buffer pH 7.4, read-out: Papp (cm/sec, *10^−6)
Excerpt: Caco-2 Permeability Assay Caco-2 cells are purchased from Cell Culture Services as frozen instant cells at a concentration of 1*10^7 cells/vial. DMEM+glutamax-I culture media is purchased from Gibco (10569). Fetal bovine serum (FBS) is purchased from HyClone (SH30396.03). Pennicilin/Streptomycin antibiotics are purchased from Gibco (15140). MEM non-essential amino acids are purchased from Gibco (11140). Hank's balanced salt solution (HBSS) is purchased from Gibco (14025). Bovine serum albumin (BSA) is purchased from Sigma-Aldrich (A7906). MES low moisture is purchased from Sigma-Aldrich (M3671). HEPES is purchased from Sigma-Aldrich (H3375). Dimethyl Sulfoxide (DMSO) is purchased from EMD (MX1457-6). Complete DMEM media is prepared by adding 1 L of FBS, 100 mL of pen/strep and 110 mL of MEM non essential amino acids to 10 L of DMEM+glutamax-I. […] Caco-2 cells are seeded on HTS transwell 24-well plates purchased from Corning (3397). These polycarbonate membrane plates have a diameter of […] and pore size of 0.4 μm. The Caco-2 cells vial is thawed in a 37° C. water bath until only a small ice pellet is left. The vial is then transferred to the laminar flow hood and its exterior is extensively washed with 70% ethanol. The total content of the vial (2 mL) is transferred into a 50 mL tube containing 38 mL of complete DMEM. […] The seeding is done by the Hamilton star robotic station which is controlled with the Venus program. Each well will receive 600 μL of complete DMEM on its basolateral side and 200 μL of cells on its apical side. Each well receives 50 000 cells. The 24-well plates are then returned to an automated Liconic STX110 incubator set at 37° C., 5% CO2 and 100% humidity. The culture media for the cells is changed every two days except on weekends. These cells are maintained for a period of two weeks prior to the running of the permeability assay. Permeability assays are usually performed between day 15 and 18 after the initial seeding. […] Controls for the assay are mannitol for tight junction determination and Digoxin for efflux transporter (p-glycoprotein) expression. On the day of the assay, each compound is diluted to 10 μM in the buffer (apical for A to B). 6 μl of the 5 mM DMSO stock is added to 3 mL of the buffer in a 24-well 10 mL deep plate covered with a lid. The plate containing all the diluted compounds is spun for 10 min at 3000 rpm in a Rotanta 46 RSC centrifuge from Hettich to remove unsoluble compound. This dilution is used to add at the start of the incubation. Each compound is tested in duplicate. On the day of the assay, the culture media of the 24-well plate is removed and replaced with warm HBSS. The HBSS is then also removed and the Apical and Basolatral buffer are added to their respective side of the transwells. These steps are performed by the Hamilton Star robotic station. The plate is then placed in a 37° C. incubator and is left to equilibrate for 30 min. After 30 min of incubation a background sample (25 μL from each well) is taken from the receiver side (Basolateral for A to B), and replenished with warm buffer. These samples and all others afterwards are kept in a 96-well 1 mL plate. To start the assay, the donor compartment (apical for A to B) is emptied and replaced with new buffer containing the compound at 10 μM. Once the compounds are added, the plate is returned to the 37° C. incubator and the timer is started. In order to determine how much compound is actually added to each well, a 50 μL sample is taken from each compound dilution, this sample is refered to as the load. These steps and the following are performed by the Tecan Freedom EVO robotic station controlled via the Gemini software. For A-to-B Assay: Samples (190 μL) are taken from each basolateral (receiver) chamber at time points 0, 60, 120 and 180 min or at time points 0, 30, 60 and 90 min. From the 190 μL taken, 50 μL is transferred to the receiving plate and 140 μL is discarded.

SMILES | EC50 (HIV-1) [nM] | Papp A→B at 10 μM [1] [×10⁻⁶ cm/s] | Papp A→B [1] [×10⁻⁶ cm/s]
CC[C@H]1C[C@@H](n2c(=O)nc(-c3cnn(C)c3)c3oc4cc(F)c(-c5cnn(C)c5)cc4c32)CCO1 [Compound 1042] | 6.9 | 23.4 | –
CC[C@H]1C[C@@H](n2c(=O)nc(-c3cnn(C)c3)c3oc4cc(F)c(-c5cnc(C)o5)cc4c32)CCO1 [Compound 1044] | 22 | 12.4 | –
CC[C@H]1C[C@@H](n2c(=O)nc(-c3cnn(C)c3)c3oc4cc(F)c(-c5ccc(CO)nc5)cc4c32)CCO1 [Compound 1045] | 17.3 | 9.4 | –
CC[C@H]1C[C@@H](n2c(=O)nc(-c3cnn(C)c3)c3oc4cc(F)c(-c5ccc(C(C)O)nc5)cc4c32)CCO1 (stereo partly drawn) [Compound 1046] | 110 | 17.9 | –
CC[C@H]1C[C@@H](n2c(=O)nc(-c3cnn(C)c3)c3oc4cc(Cl)c(-c5cnn(C)c5)cc4c32)CCO1 [Compound 1048] | 6 | 22.1 | –
CC[C@H]1C[C@@H](n2c(=O)nc(-c3cnn(C)c3)c3oc4cc(C)c(-c5cnn(C)c5)cc4c32)CCO1 [Compound 1050] | 7.7 | 19.1 | –
CC[C@H]1C[C@@H](n2c(=O)nc(-c3cnn(C)c3)c3oc4cc(C#N)c(-c5cccnc5)cc4c32)CCO1 [Compound 1051] | 220 | 15.4 | –
C[C@@H]1C[C@H](n2c(=O)nc(-c3cnn(C)c3)c3oc4cc(C#N)c(-c5cnn(C)c5)cc4c32)C[C@H](C)O1 [Compound 1052] | 150 | 18.2 | –
CC[C@H]1C[C@@H](n2c(=O)nc(-c3cnn(C)c3)c3oc4cc(C#N)c(-c5cnn(C)c5)cc4c32)C[C@@H](C)O1 [Compound 1053] | 43 | 22.2 | –
CC[C@H]1C[C@@H](n2c(=O)nc(-c3cnn(C)c3)c3oc4cc(C#N)c(-c5ccn(C)n5)cc4c32)CCO1 [Compound 1054] | 32.2 | 20.3 | –
CC[C@H]1C[C@@H](n2c(=O)nc(-c3cnn(C)c3)c3oc4cc(OC)c(-c5cnn(C)c5)cc4c32)CCO1 [Compound 1055] | 3.6 | 8.42 | –
COc1cc2oc3c(-c4cnn(C)c4)nc(=O)n(CC[C@@H]4CCCO4)c3c2cc1-c1cnn(C)c1 [Compound 1056] | 8.3 | 6.7 | –
CC[C@H]1C[C@@H](n2c(=O)nc(-c3cnn(C)c3)c3oc4c(OC)cc(-c5cnn(C)c5)cc4c32)CCO1 [Compound 1057] | 2.2 | 14.9 | –
CC[C@H]1C[C@@H](n2c(=O)nc(-c3cnn(C)c3)c3oc4c(C)cc(-c5cnn(C)c5)cc4c32)CCO1 [Compound 1058] | 0.6 | 16.6 | –
CC[C@H]1C[C@@H](n2c(=O)nc(-c3cnn(C)c3)c3oc4c(C#N)c(C)c(-c5cnn(C)c5)cc4c32)CCO1 [Compound 1060] | 140 | 13 | –
CC[C@H]1C[C@@H](n2c(=O)nc(-c3cnn(C)c3)c3oc4ncc(-c5cnn(C)c5)cc4c32)CCO1 [Compound 1061] | 20.3 | 9.3 | –
CNc1ccc(-c2nc(=O)n(CCC3CCCO3)c3c2oc2ncc(-c4cnco4)cc23)cn1 (stereo not drawn) [Compound 1066] | 110 | 8.3 | –

SMILES | EC50 (HIV-1) [nM] | Papp A→B at 10 μM [1] [×10⁻⁶ cm/s] | Papp A→B [1] [×10⁻⁶ cm/s]
CCn1cc(-c2cnc3oc4c(-c5ccc(NC)nc5)nc(=O)n(CCC5CCCCO5)c4c3c2)cn1 (stereo not drawn) [Compound 1067] | 40 | 5.3 | –
CNc1ccc(-c2nc(=O)n(CCC3CCCO3)c3c2oc2ncc(-c4cnn(CC5CC5)c4)cc23)cn1 (stereo not drawn) [Compound 1068] | 78 | 8.1 | –
CC[C@H]1C[C@@H](n2c(=O)nc(-c3cnn(CC)c3)c3oc4ncc(-c5cnn(CC)c5)cc4c32)CCO1 [Compound 1072] | 110 | 21.4 | –
Cn1cc(-c2cnc3oc4c(-c5cnn(C)c5)nc(=O)n(CCC5CCCCO5)c4c3c2)cn1 (stereo not drawn) [Compound 1074] | 90 | 11 | –
CC[C@H]1C[C@@H](n2c(=O)nc(-c3cnn(C)c3)c3oc4cnc(-c5cnn(C)c5)cc4c32)CCO1 [Compound 1076] | 5.9 | – | 17.9
CC[C@H]1C[C@@H](n2c(=O)nc(-c3ccc(NC)nc3)c3oc4cnc(-c5cnn(C)c5)cc4c32)CCO1 [Compound 1077] | 6 | 14.7 | –
CC[C@H]1C[C@@H](n2c(=O)nc(-c3cnn(C)c3)c3oc4nc(C)c(-c5cnco5)cc4c32)CCO1 [Compound 1080] | 120 | 12.4 | –
CC[C@H]1C[C@@H](n2c(=O)nc(-c3cnn(C)c3)c3oc4c(C)nc(-c5cnn(C)c5)cc4c32)CCO1 [Compound 1082] | 3.3 | 18.9 | –
CC[C@H]1C[C@@H](n2c(=O)nc(-c3cnn(C)c3)c3oc4ncc(-c5cccnc5)cc4c32)CCO1 [Compound 1083] | 41 | 12.5 | –
C[C@@H]1C[C@H](n2c(=O)nc(-c3cnn(C)c3)c3oc4cnc(-c5cnn(C)c5)cc4c32)C[C@H](C)O1 [Compound 1084] | 120 | 20.5 | –
CC[C@H]1C[C@@H](n2c(=O)nc(-c3cnn(C)c3)c3oc4cnc(-c5cnn(CCOC)c5)cc4c32)CCO1 [Compound 1085] | 120 | 19.2 | –
CC[C@@H]1C[C@H](n2c(=O)nc(-c3cnn(C)c3)c3oc4cnc(-c5cccnc5)cc4c32)CCO1 [Compound 1086] | 18 | 22.5 | –
CC[C@H]1C[C@@H](n2c(=O)nc(-c3cnn(C)c3)c3oc4cnc(-c5cnn(C)c5)cc4c32)CCCO1 [Compound 1087] | 9.7 | 23.1 | –
CC[C@H]1C[C@@H](n2c(=O)nc(-c3cnn(C)c3)c3oc4cnc(-c5cnc(C)o5)cc4c32)CCO1 [Compound 1088] | 36.2 | 22.9 | –
CC[C@H]1C[C@@H](n2c(=O)nc(-c3cnn(C)c3)c3oc4cnc(-c5cnco5)cc4c32)CCO1 [Compound 1089] | 30 | 18.6 | –
CC[C@H]1C[C@@H](n2c(=O)nc(-c3cnn(C)c3)c3oc4cnc(-n5ccnc5)cc4c32)CCO1 [Compound 1090] | 160 | 8.7 | –
